Source: patent US20090054523A1, “Use of a Fatty Acid Composition Containing DHA for the Production of a Medical Product or a Food Stuff for the Treatment of Amyloidos-Related Diseases” (priority 2005, published 2009)

Test system: secondary amyloidosis (spleen amyloid)
Assay: Secondary amyloidosis induced by silver nitrate injections, spleen amyloid by Congo red
Assay type: in vivo, Female NMRI mice
Procedure: Female NMRI mice were injected once a week subcutaneously with 0.3 ml of a 1% silver nitrate solution for 25 weeks. The animals were fed high fat diet containing mainly sunflower oil with a fat content of 55% of total daily calories. Three groups each consisting of 6 animals were given different omega-3 fatty acid concentrates (intervention group) or standard olive oil containing about 78% oleic acid (oleic acid group). In the intervention groups 15% of the fat content was exchanged with either 97% docosahexaenoic acid (DHA group) or EPAX1050TG containing 10% of EPA and 50% of DHA (EPAX group).
After study completion the mice were sacrificed and spleens were collected.
The air-dried smear material and 10-μm-thick sections from the formalin fixed material were stained for amyloid with specific dye alkaline Congo red. The slides were examined in cross-polarized light for bright green birefringence, specific for amyloid. Evaluation of the material was performed on coded slides.

Compound: CC/C=C\C/C=C\C/C=C\C/C=C\C/C=C\C/C=C\CCC(=O)O [DHA, (all-Z omega-3)-4,7,10,13,16,19-docosahexaenoic acid]
- amyloid appeared in the spleen (25 weeks of weekly s.c. silver nitrate, 15% of fat content exchanged): one out of six
- animals that developed amyloid after silver nitrate injections (after 25 weeks of treatment): one
- animals with amyloid (spleen, 25 weeks of weekly s.c. silver nitrate, 15% of tot. fat of high fat diet exchanged): 1/6 animals
